# Measured values from US8076320B2, “Crystalline forms of a pharmaceutical compound” (Cephalon, Inc., priority 2004, dated 2011).
# Tests used:
# Assay type in all cases: physicochemical
# [1] = Suspension of excess solid Compound I in solvent on a rotarmix, solid form determined by powder X-ray diffraction
# Procedure: In the following examples are used excess of solid Compound I, i.e. compared to the solvent the amounts of solid Compound I is such that not all the solid material comes into solution. The amounts used varied between 25-50 mg solid Compound I and 2-5 ml solvent. In the present context by “solid Compound I” is meant amorphous Compound I or any of the crystalline forms of Compound I as indicated below. • (i) Excess of amorphous Compound I was added to methanol and the resulting suspension was stored on a rotarmix for 4 days at room temperature. […] After filtration the supernatant was left for evaporation of the solvent. […] Conclusion: […]
# [2] = as above; settings: 4 days, room temperature; for solid form after storage as suspension in acetonitrile (ACN): excess solid in ACN; for solid form after storage as suspension in methanol: excess solid in methanol
# [3] = Light exposure of the solid compound in a Heraeus Suntest CPS+; settings: solid compound exposed to light for 14 h at 650W
# Procedure: Experiments were carried out in a Heraeus Suntest CPS+ for the crystalline forms alpha, beta and gamma where the solid compound was exposed to light for 14 h at 650W.
# [4] = listed as crystalline alpha form of Compound I
# [5] = listed as crystalline beta form of Compound I
# [6] = listed as crystalline gamma form of Compound I
structure (smiles),measurement,setting,value
CCSCc1ccc2c(c1)c1c3c(c4c5cc(CSCC)ccc5n5c4c1n2[C@H]1C[C@](O)(C(=O)OC)[C@]5(C)O1)CNC3=O,solid form after storage as suspension in methanol,"[1]; excess solid in methanol, rotarmix, 4 days, room temperature, powder X-ray diffraction",the major part of the solid was the gamma form
same,solid form obtained on evaporation of the filtered supernatant,"[1]; methanol suspension after 4 days, filtration, supernatant left for evaporation of the solvent",the alpha form
CCSCc1ccc2c(c1)c1c3c(c4c5cc(CSCC)ccc5n5c4c1n2[C@H]1C[C@](O)(C(=O)OC)[C@]5(C)O1)CNC3=O [alpha],solid form after storage as suspension in acetonitrile (ACN),[2]; [4],the gamma form
same,solid form after storage as suspension in methanol,[2]; [4],still the alpha form
CCSCc1ccc2c(c1)c1c3c(c4c5cc(CSCC)ccc5n5c4c1n2[C@H]1C[C@](O)(C(=O)OC)[C@]5(C)O1)CNC3=O [amorphous substance],solid form after storage as suspension in acetonitrile (ACN),[2]; listed as amorphous Compound I,the gamma form
same,solid form after storage as suspension in methanol,[2]; listed as amorphous Compound I,the alpha form
same,degradation after light treatment,[3],~60%
CCSCc1ccc2c(c1)c1c3c(c4c5cc(CSCC)ccc5n5c4c1n2[C@H]1C[C@](O)(C(=O)OC)[C@]5(C)O1)CNC3=O [beta],solid form after storage as suspension in acetonitrile (ACN),[2]; [5],the gamma form
same,solid form after storage as suspension in methanol,[2]; [5],the alpha form
CCSCc1ccc2c(c1)c1c3c(c4c5cc(CSCC)ccc5n5c4c1n2[C@H]1C[C@](O)(C(=O)OC)[C@]5(C)O1)CNC3=O [gamma],solid form after storage as suspension in acetonitrile (ACN),[2]; [6],still the gamma form
same,solid form after storage as suspension in methanol,[2]; [6],still the gamma form
